{"source": "patent EP0497314A1", "about": "“Use of azapirones in attention deficit hyperactivity disorder” (Bristol-Myers Squibb Company, priority 1991, dated 1992)", "key": {"rabbit cortex": {"tested_on": "rabbit cortex", "assay": "Quantitative EEG, rabbit cortex, intravenous administration", "type": "in vivo, rabbits", "details": "for group percent change in electrical energy from pre-drug control, Δ band / mean change ± S.E. in electrical energy from pre-drug control, Δ band: Δ = 0.5-3.5 Hz; for group percent change in electrical energy from pre-drug control, α band / mean change ± S.E. in electrical energy from pre-drug control, α band: α= 7-13 Hz; for group percent change in electrical energy from pre-drug control, β band / mean change ± S.E. in electrical energy from pre-drug control, β band: β= 13-25 Hz; for group percent change in electrical energy from pre-drug control, γ band / mean change ± S.E. in electrical energy from pre-drug control, γ band: γ= 25-40 Hz; for group percent change in electrical energy from pre-drug control, θ band / mean change ± S.E. in electrical energy from pre-drug control, θ band: θ= 3.5-7.0 Hz", "procedure,_shortened": "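Restrained rabbits with cortical leads had EEG split into Δ, ϑ, α, β and γ bands and integrated over 1 h from the moment of i.v. injection, in saline, dosed as free base. Counts were compared with each animal's own pretreatment control by paired t-test (p≦0.05). Doses were reduced geometrically to a no-effect level.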"}, "[1]": {"tested_on": "fronto-occipital cortex of the cat", "assay": "Quantitative EEG, fronto-occipital cat cortex, subcutaneous administration", "type": "in vivo, cats", "details": "for group percent change in electrical energy from pre-drug control, Δ band / mean change ± S.E. in electrical energy from pre-drug control, Δ band / group percent change in electrical energy from pre-drug control, α band / mean change ± S.E. in electrical energy from pre-drug control, α band / group percent change in electrical energy from pre-drug control, β band / mean change ± S.E. in electrical energy from pre-drug control, β band / group percent change in electrical energy from pre-drug control, γ band / mean change ± S.E. in electrical energy from pre-drug control, γ band / group percent change in electrical energy from pre-drug control, θ band / mean change ± S.E. in electrical energy from pre-drug control, θ band: fronto-occipital cat cortex; for group percent change in electrical energy from pre-drug control, Δ band / mean change ± S.E. in electrical energy from pre-drug control, Δ band: Δ = 0.5-3.5 Hz; for group percent change in electrical energy from pre-drug control, α band / mean change ± S.E. in electrical energy from pre-drug control, α band: α= 7-13 Hz; for group percent change in electrical energy from pre-drug control, β band / mean change ± S.E. in electrical energy from pre-drug control, β band: β= 13-25 Hz; for group percent change in electrical energy from pre-drug control, γ band / mean change ± S.E. in electrical energy from pre-drug control, γ band: γ= 25-40 Hz; for group percent change in electrical energy from pre-drug control, θ band / mean change ± S.E. in electrical energy from pre-drug control, θ band: θ= 3.5-7.0 Hz", "procedure,_shortened": "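Adult female mongrel cats (n=6 per group) with implanted electrodes were recorded while held in restraining bags, with EEG filtered into Δ, ϑ, α, β and γ bands and integrated as energy counts. Drugs were given subcutaneously in saline, with doses calculated as free base, and recording started 30 min post-injection. Changes from each animal's pre-treatment control were tested by paired Student t-test (P≦0.05).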"}, "[2]": {"details": "rabbit cortex, 0.125 mg/kg free base i.v."}, "[3]": {"details": "rabbit cortex, 0.25 mg/kg free base i.v."}}, "note": "Structures can show the parent of a compound that is named as a salt. Marks after values point to notes of the source that are not given here.", "data": [{"smiles": "CN(C)CCCN1c2ccccc2Sc2ccc(Cl)cc21", "note": "[Chlorpromazine HCl, chlorpromazine]", "values": [{"measurement": "minimal effective dose", "setting": "rabbit cortex; Oryctolagus cuniculus, iv, rabbit cortex EEG, dose of free base, read-out: the minimum dose required to produce the EEG profile characteristic of that particular drug", "result": 0.25, "unit": "mg/kg"}, {"measurement": "relative potency by comparing minimal doses required to elicit EEG profiles", "setting": "rabbit cortex; rabbit cortex EEG, i.v.", "result": "approximately twice as potent as buspirone"}, {"measurement": "the no-effect dose", "setting": "rabbit cortex; rabbit cortex EEG, dose of free base", "result": "0.125† mg/kg, i.v."}, {"measurement": "EEG profile", "setting": "rabbit cortex; rabbit cortex, i.v.", "result": "completely different from that produced by stimulant drugs"}, {"measurement": "group percent change in electrical energy from pre-drug control, Δ band", "setting": "rabbit cortex; [2]", "result": "+15%"}, {"measurement": "mean change ± S.E. in electrical energy from pre-drug control, Δ band", "setting": "rabbit cortex; [2]", "result": "+30 ± 17 instrument counts"}, {"measurement": "group percent change in electrical energy from pre-drug control, Δ band", "setting": "rabbit cortex; [3]", "result": "+75%"}, {"measurement": "mean change ± S.E. in electrical energy from pre-drug control, Δ band", "setting": "rabbit cortex; [3]", "result": "+198 ± 51 instrument counts"}, {"measurement": "group percent change in electrical energy from pre-drug control, α band", "setting": "rabbit cortex; [2]", "result": "+14%"}, {"measurement": "mean change ± S.E. in electrical energy from pre-drug control, α band", "setting": "rabbit cortex; [2]", "result": "+21 ± 19 instrument counts"}, {"measurement": "group percent change in electrical energy from pre-drug control, α band", "setting": "rabbit cortex; [3]", "result": "+42%"}, {"measurement": "mean change ± S.E. in electrical energy from pre-drug control, α band", "setting": "rabbit cortex; [3]", "result": "+65 ± 18 instrument counts"}, {"measurement": "group percent change in electrical energy from pre-drug control, β band", "setting": "rabbit cortex; [2]", "result": "+10%"}, {"measurement": "mean change ± S.E. in electrical energy from pre-drug control, β band", "setting": "rabbit cortex; [2]", "result": "+12 ± 11 instrument counts"}, {"measurement": "group percent change in electrical energy from pre-drug control, β band", "setting": "rabbit cortex; [3]", "result": "+30%"}, {"measurement": "mean change ± S.E. in electrical energy from pre-drug control, β band", "setting": "rabbit cortex; [3]", "result": "+42 ± 13 instrument counts"}, {"measurement": "group percent change in electrical energy from pre-drug control, γ band", "setting": "rabbit cortex; [2]", "result": -3, "unit": "%"}, {"measurement": "mean change ± S.E. in electrical energy from pre-drug control, γ band", "setting": "rabbit cortex; [2]", "result": "-3 ± 2", "unit": "instrument counts"}, {"measurement": "group percent change in electrical energy from pre-drug control, γ band", "setting": "rabbit cortex; [3]", "result": "+5%"}, {"measurement": "mean change ± S.E. in electrical energy from pre-drug control, γ band", "setting": "rabbit cortex; [3]", "result": "+4 ± 1 instrument counts"}, {"measurement": "group percent change in electrical energy from pre-drug control, θ band", "setting": "rabbit cortex; [2]", "result": "+13%"}, {"measurement": "mean change ± S.E. in electrical energy from pre-drug control, θ band", "setting": "rabbit cortex; [2]", "result": "+20 ± 17 instrument counts"}, {"measurement": "group percent change in electrical energy from pre-drug control, θ band", "setting": "rabbit cortex; [3]", "result": "+33%"}, {"measurement": "mean change ± S.E. in electrical energy from pre-drug control, θ band", "setting": "rabbit cortex; [3]", "result": "+65 ± 22 instrument counts"}, {"measurement": "minimal effective dose", "setting": "[1]; Felis catus, sc, fronto-occipital cat cortex EEG, dose of free base, read-out: the minimum dose required to produce the EEG profile characteristic of that particular drug", "result": 1, "unit": "mg/kg"}, {"measurement": "the no-effect dose", "setting": "[1]; fronto-occipital cat cortex EEG, dose of free base", "result": "0.5† mg/kg, s.c."}, {"measurement": "group percent change in electrical energy from pre-drug control, Δ band", "setting": "[1]; 0.5 mg/kg free base s.c.", "result": "+6%"}, {"measurement": "mean change ± S.E. in electrical energy from pre-drug control, Δ band", "setting": "[1]; 0.5 mg/kg free base s.c.", "result": "+14 ± 23 instrument counts"}, {"measurement": "group percent change in electrical energy from pre-drug control, Δ band", "setting": "[1]; 1.0 mg/kg free base s.c.", "result": "+25%"}, {"measurement": "mean change ± S.E. in electrical energy from pre-drug control, Δ band", "setting": "[1]; 1.0 mg/kg free base s.c.", "result": "+46 ± 16 instrument counts"}, {"measurement": "group percent change in electrical energy from pre-drug control, Δ band", "setting": "[1]; 4.0 mg/kg free base s.c.", "result": "+56%"}, {"measurement": "mean change ± S.E. in electrical energy from pre-drug control, Δ band", "setting": "[1]; 4.0 mg/kg free base s.c.", "result": "+83 ± 13 instrument counts"}, {"measurement": "group percent change in electrical energy from pre-drug control, α band", "setting": "[1]; 0.5 mg/kg free base s.c.", "result": "+19%"}, {"measurement": "mean change ± S.E. in electrical energy from pre-drug control, α band", "setting": "[1]; 0.5 mg/kg free base s.c.", "result": "+23 ± 14 instrument counts"}, {"measurement": "group percent change in electrical energy from pre-drug control, α band", "setting": "[1]; 1.0 mg/kg free base s.c.", "result": "+25%"}, {"measurement": "mean change ± S.E. in electrical energy from pre-drug control, α band", "setting": "[1]; 1.0 mg/kg free base s.c.", "result": "+33 ± 8 instrument counts"}, {"measurement": "group percent change in electrical energy from pre-drug control, α band", "setting": "[1]; 4.0 mg/kg free base s.c.", "result": "+38%"}, {"measurement": "mean change ± S.E. in electrical energy from pre-drug control, α band", "setting": "[1]; 4.0 mg/kg free base s.c.", "result": "+33 ± 2 instrument counts"}, {"measurement": "group percent change in electrical energy from pre-drug control, β band", "setting": "[1]; 0.5 mg/kg free base s.c.", "result": "+6%"}, {"measurement": "mean change ± S.E. in electrical energy from pre-drug control, β band", "setting": "[1]; 0.5 mg/kg free base s.c.", "result": "+6 ± 5 instrument counts"}, {"measurement": "group percent change in electrical energy from pre-drug control, β band", "setting": "[1]; 1.0 mg/kg free base s.c.", "result": "+9%"}, {"measurement": "mean change ± S.E. in electrical energy from pre-drug control, β band", "setting": "[1]; 1.0 mg/kg free base s.c.", "result": "+13 ± 6 instrument counts"}, {"measurement": "group percent change in electrical energy from pre-drug control, β band", "setting": "[1]; 4.0 mg/kg free base s.c.", "result": -3, "unit": "%"}, {"measurement": "mean change ± S.E. in electrical energy from pre-drug control, β band", "setting": "[1]; 4.0 mg/kg free base s.c.", "result": "-3 ± 5", "unit": "instrument counts"}, {"measurement": "group percent change in electrical energy from pre-drug control, γ band", "setting": "[1]; 0.5 mg/kg free base s.c.", "result": -13, "unit": "%"}, {"measurement": "mean change ± S.E. in electrical energy from pre-drug control, γ band", "setting": "[1]; 0.5 mg/kg free base s.c.", "result": "-10 ± 4", "unit": "instrument counts"}, {"measurement": "group percent change in electrical energy from pre-drug control, γ band", "setting": "[1]; 1.0 mg/kg free base s.c.", "result": -10, "unit": "%"}, {"measurement": "mean change ± S.E. in electrical energy from pre-drug control, γ band", "setting": "[1]; 1.0 mg/kg free base s.c.", "result": "-10 ± 5", "unit": "instrument counts"}, {"measurement": "group percent change in electrical energy from pre-drug control, γ band", "setting": "[1]; 4.0 mg/kg free base s.c.", "result": -14, "unit": "%"}, {"measurement": "mean change ± S.E. in electrical energy from pre-drug control, γ band", "setting": "[1]; 4.0 mg/kg free base s.c.", "result": "-11 ± 3", "unit": "instrument counts"}, {"measurement": "group percent change in electrical energy from pre-drug control, θ band", "setting": "[1]; 0.5 mg/kg free base s.c.", "result": "+15%"}, {"measurement": "mean change ± S.E. in electrical energy from pre-drug control, θ band", "setting": "[1]; 0.5 mg/kg free base s.c.", "result": "+22 ± 15 instrument counts"}, {"measurement": "group percent change in electrical energy from pre-drug control, θ band", "setting": "[1]; 1.0 mg/kg free base s.c.", "result": "+20%"}, {"measurement": "mean change ± S.E. in electrical energy from pre-drug control, θ band", "setting": "[1]; 1.0 mg/kg free base s.c.", "result": "+28 ± 10 instrument counts"}, {"measurement": "group percent change in electrical energy from pre-drug control, θ band", "setting": "[1]; 4.0 mg/kg free base s.c.", "result": "+53%"}]}]}
